These results are taken from patent US12404262B2 (priority 2021, dated 2025).

For the series the following is noted: 1.0% DMSO, 24-hour incubation at ambient temperature, maximum theoretical 100 μM; for pH 2 solubility: 0.1N HCl, first value of the cell; for pH 7 solubility: 1×PBS buffer (pH 7.4), second value of the cell.

Turning to `CN1CCN(CC(=O)N(c2nn(CC(F)(F)F)c3c(-c4ccc(C#CC(C)(C)S(C)(=O)=O)nc4[C@H](Cc4cc(F)cc(F)c4)NC(=O)Cn4nc(C(F)(F)F)c5c4C(F)(F)[C@@H]4C[C@H]54)ccc(Cl)c23)S(C)(=O)=O)CC1` [Compound 6, (N-(4-chloro-7-(2-((S)-1-(2-((3bS,4aR)-5,5-difluoro-3-(trifluoromethyl)-3b,4,4a,5-tetrahydro-1H-cyclopropa[3,4]cyclopenta[1,2-c]pyrazol-1-yl)acetamido)-2-(3,5-difluorophenyl)ethyl)-6-(3-methyl-3-(methylsulfonyl)but-1-yn-1-yl)pyridin-3-yl)-1-(2,2,2-trifluoroethyl)-1H-indazol-3-yl)-2-(4-methylpiperazin-1-yl)-N-(methylsulfonyl)acetamide)], the “pH 2 solubility” value worked out at 50 μM and the “pH 7 solubility” value came to 3 μM.

As for `CN(CCO)C(=O)N(c1nn(CC(F)(F)F)c2c(-c3ccc(C#CC(C)(C)S(C)(=O)=O)nc3[C@H](Cc3cc(F)cc(F)c3)NC(=O)Cn3nc(C(F)(F)F)c4c3C(F)(F)[C@@H]3C[C@H]43)ccc(Cl)c12)S(C)(=O)=O` [Compound 50, N—((S)-1-(3-(4-chloro-3-(N-((2-hydroxyethyl)(methyl)carbamoyl)methylsulfonamido)-1-(2,2,2-trifluoroethyl)-1H-indazol-7-yl)-6-(3-methyl-3-(methylsulfonyl)but-1-yn-1-yl)pyridin-2-yl)-2-(3,5-difluorophenyl)ethyl)-2-((3bS,4aR)-5,5-difluoro-3-(trifluoromethyl)-3b,4,4a,5-tetrahydro-1H-cyclopropa[3,4]cyclopenta[1,2-c]pyrazol-1-yl)acetamide], the “pH 2 solubility” value is recorded as 1 μM and the “pH 7 solubility” value came to 2 μM.

For the compound `CC(C)(C#Cc1ccc(-c2ccc(Cl)c3c(N(C(=O)NCCN4CCN(C(=N)N)CC4)S(C)(=O)=O)nn(CC(F)(F)F)c23)c([C@H](Cc2cc(F)cc(F)c2)NC(=O)Cn2nc(C(F)(F)F)c3c2C(F)(F)[C@@H]2C[C@H]32)n1)S(C)(=O)=O` [Compound 74, N—((S)-1-(3-(3-(N-((2-(4-carbamimidoylpiperazin-1-yl)ethyl)carbamoyl)methylsulfonamido)-4-chloro-1-(2,2,2-trifluoroethyl)-1H-indazol-7-yl)-6-(3-methyl-3-(methylsulfonyl)but-1-yn-1-yl)pyridin-2-yl)-2-(3,5-difluorophenyl)ethyl)-2-((3bS,4aR)-5,5-difluoro-3-(trifluoromethyl)-3b,4,4a,5-tetrahydro-1H-cyclopropa[3,4]cyclopenta[1,2-c]pyrazol-1-yl)acetamide], the “pH 2 solubility” value was determined as 72 μM and the “pH 7 solubility” value came to 24 μM.

Consider `CN(CCNC(=N)N)C(=O)N(c1nn(CC(F)(F)F)c2c(-c3ccc(C#CC(C)(C)S(C)(=O)=O)nc3[C@H](Cc3cc(F)cc(F)c3)NC(=O)Cn3nc(C(F)(F)F)c4c3C(F)(F)[C@@H]3C[C@H]43)ccc(Cl)c12)S(C)(=O)=O` [Compound 75, N—((S)-1-(3-(4-chloro-3-(N-((2-guanidinoethyl)(methyl)carbamoyl)methylsulfonamido)-1-(2,2,2-trifluoroethyl)-1H-indazol-7-yl)-6-(3-methyl-3-(methylsulfonyl)but-1-yn-1-yl)pyridin-2-yl)-2-(3,5-difluorophenyl)ethyl)-2-((3bS,4aR)-5,5-difluoro-3-(trifluoromethyl)-3b,4,4a,5-tetrahydro-1H-cyclopropa[3,4]cyclopenta[1,2-c]pyrazol-1-yl)acetamide], for which the “pH 2 solubility” value turned out to be 16 μM and the “pH 7 solubility” value was 13 μM.

Consider `C[C@H](N)C(=O)OCN(c1nn(CC(F)(F)F)c2c(-c3ccc(C#CC(C)(C)S(C)(=O)=O)nc3[C@H](Cc3cc(F)cc(F)c3)NC(=O)Cn3nc(C(F)(F)F)c4c3C(F)(F)[C@@H]3C[C@H]43)ccc(Cl)c12)S(C)(=O)=O` [Compound 27, (N-(4-chloro-7-(2-((S)-1-(2-((3bS,4aR)-5,5-difluoro-3-(trifluoromethyl)-3b,4,4a,5-tetrahydro-1H-cyclopropa[3,4]cyclopenta[1,2-c]pyrazol-1-yl)acetamido)-2-(3,5-difluorophenyl)ethyl)-6-(3-methyl-3-(methylsulfonyl)but-1-yn-1-yl)pyridin-3-yl)-1-(2,2,2-trifluoroethyl)-1H-indazol-3-yl)methylsulfonamido)methyl L-alaninate], for which the “pH 2 solubility” value is 20 μM and the “pH 7 solubility” value came out at 2 μM.

As to `CC(C)(C#Cc1ccc(-c2ccc(Cl)c3c(N(C(=O)OCCCS(=O)(=O)O)S(C)(=O)=O)nn(CC(F)(F)F)c23)c([C@H](Cc2cc(F)cc(F)c2)NC(=O)Cn2nc(C(F)(F)F)c3c2C(F)(F)[C@@H]2C[C@H]32)n1)S(C)(=O)=O` [Compound 111, 3-(((4-chloro-7-(2-((S)-1-(2-((3bS,4aR)-5,5-difluoro-3-(trifluoromethyl)-3b,4,4a,5-tetrahydro-1H-cyclopropa[3,4]cyclopenta[1,2-c]pyrazol-1-yl)acetamido)-2-(3,5-difluorophenyl)ethyl)-6-(3-methyl-3-(methylsulfonyl)but-1-yn-1-yl)pyridin-3-yl)-1-(2,2,2-trifluoroethyl)-1H-indazol-3-yl)(methylsulfonyl)carbamoyl)oxy)propane-1-sulfonic acid], the “pH 2 solubility” value was 33 μM and the “pH 7 solubility” value was found to be 42 μM.

On to `COC(=O)CN(C)C(=O)N(c1nn(CC(F)(F)F)c2c(-c3ccc(C#CC(C)(C)S(C)(=O)=O)nc3[C@H](Cc3cc(F)cc(F)c3)NC(=O)Cn3nc(C(F)(F)F)c4c3C(F)(F)[C@@H]3C[C@H]43)ccc(Cl)c12)S(C)(=O)=O` [Compound 43, methyl N-((4-chloro-7-(2-((S)-1-(2-((3bS,4aR)-5,5-difluoro-3-(trifluoromethyl)-3b,4,4a,5-tetrahydro-1H-cyclopropa[3,4]cyclopenta[1,2-c]pyrazol-1-yl)acetamido)-2-(3,5-difluorophenyl)ethyl)-6-(3-methyl-3-(methylsulfonyl)but-1-yn-1-yl)pyridin-3-yl)-1-(2,2,2-trifluoroethyl)-1H-indazol-3-yl)(methylsulfonyl)carbamoyl)-N-methylglycinate], for which the “pH 2 solubility” value is recorded as 1/1 μM and the “pH 7 solubility” value is given as 1/1 μM.

For the compound `CC(C)(C#Cc1ccc(-c2ccc(Cl)c3c(N(C(=O)O[C@H](C(=O)O)[C@H](O)C(=O)O)S(C)(=O)=O)nn(CC(F)(F)F)c23)c([C@H](Cc2cc(F)cc(F)c2)NC(=O)Cn2nc(C(F)(F)F)c3c2C(F)(F)[C@@H]2C[C@H]32)n1)S(C)(=O)=O` [Compound 118, (2S,3S)-2-(((4-chloro-7-(2-((S)-1-(2-((3bS,4aR)-5,5-difluoro-3-(trifluoromethyl)-3b,4,4a,5-tetrahydro-1H-cyclopropa[3,4]cyclopenta[1,2-c]pyrazol-1-yl)acetamido)-2-(3,5-difluorophenyl)ethyl)-6-(3-methyl-3-(methylsulfonyl)but-1-yn-1-yl)pyridin-3-yl)-1-(2,2,2-trifluoroethyl)-1H-indazol-3-yl)(methylsulfonyl)carbamoyl)oxy)-3-hydroxysuccinic acid], the “pH 2 solubility” value is on record as 1/1 μM and the “pH 7 solubility” value is given as 1/1 μM.

`C[C@H](CN(C)C(=O)N(c1nn(CC(F)(F)F)c2c(-c3ccc(C#CC(C)(C)S(C)(=O)=O)nc3[C@H](Cc3cc(F)cc(F)c3)NC(=O)Cn3nc(C(F)(F)F)c4c3C(F)(F)[C@@H]3C[C@H]43)ccc(Cl)c12)S(C)(=O)=O)OP(=O)(O)O` [Compound 49, (R)-1-(3-(4-chloro-7-(2-((S)-1-(2-((3bS,4aR)-5,5-difluoro-3-(trifluoromethyl)-3b,4,4a,5-tetrahydro-1H-cyclopropa[3,4]cyclopenta[1,2-c]pyrazol-1-yl)acetamido)-2-(3,5-difluorophenyl)ethyl)-6-(3-methyl-3-(methylsulfonyl)but-1-yn-1-yl)pyridin-3-yl)-1-(2,2,2-trifluoroethyl)-1H-indazol-3-yl)-1-methyl-3-(methylsulfonyl)ureido)propan-2-yl dihydrogen phosphate]: the “pH 2 solubility” value turned out to be 1 μM and the “pH 7 solubility” value came out at 82 μM.

Consider `CC(C)(C#Cc1ccc(-c2ccc(Cl)c3c(N(C(=O)NCCOP(=O)(O)O)S(C)(=O)=O)nn(CC(F)(F)F)c23)c([C@H](Cc2cc(F)cc(F)c2)NC(=O)Cn2nc(C(F)(F)F)c3c2C(F)(F)[C@@H]2C[C@H]32)n1)S(C)(=O)=O` [Compound 41, 2-(3-(4-chloro-7-(2-((S)-1-(2-((3bS,4aR)-5,5-difluoro-3-(trifluoromethyl)-3b,4,4a,5-tetrahydro-1H-cyclopropa[3,4]cyclopenta[1,2-c]pyrazol-1-yl)acetamido)-2-(3,5-difluorophenyl)ethyl)-6-(3-methyl-3-(methylsulfonyl)but-1-yn-1-yl)pyridin-3-yl)-1-(2,2,2-trifluoroethyl)-1H-indazol-3-yl)-3-(methylsulfonyl)ureido)ethyl dihydrogen phosphate], for which the “pH 2 solubility” value was 3 μM and the “pH 7 solubility” value is 17 μM.

`CC(C)(C#Cc1ccc(-c2ccc(Cl)c3c(N(C(=O)OCCOCCOP(=O)(O)O)S(C)(=O)=O)nn(CC(F)(F)F)c23)c([C@H](Cc2cc(F)cc(F)c2)NC(=O)Cn2nc(C(F)(F)F)c3c2C(F)(F)[C@@H]2C[C@H]32)n1)S(C)(=O)=O` [Compound 106, 2-(2-(phosphonooxy)ethoxy)ethyl (4-chloro-7-(2-((S)-1-(2-((3bS,4aR)-5,5-difluoro-3-(trifluoromethyl)-3b,4,4a,5-tetrahydro-1H-cyclopropa[3,4]cyclopenta[1,2-c]pyrazol-1-yl)acetamido)-2-(3,5-difluorophenyl)ethyl)-6-(3-methyl-3-(methylsulfonyl)but-1-yn-1-yl)pyridin-3-yl)-1-(2,2,2-trifluoroethyl)-1H-indazol-3-yl)(methylsulfonyl)carbamate]: the “pH 2 solubility” value is 4 μM and the “pH 7 solubility” value is reported as 100 μM.
